The assay has as its target human recombinant P2X7 receptor (Homo sapiens (Human), UniProt Q99572). As to the kind of experiment: YO-PRO1 uptake assay in HEK cells stably expressing human P2X7. The format is cell-based. As to conditions: HEK-293 cells expressing human recombinant P2X7; 250 μM ATP, 90 minutes; YO-PRO-1 fluorescence; read-out: IC50 (antagonistic activity with respect to the P2X7 receptor). On the procedure:
Cell Line Generation and YO-PRO Assay Cell line generation was performed in general according to established molecular cloning protocols. Specifically, RNA was extracted from human whole blood using the Qiagen RNeasy kit (Qiagen, CH) according to the manufacturer's instructions. […] BC011913) was amplified with the following primers: [NT] and [NT] The amplified sequence was subsequently ligated into a pcDNA3.1 (+) NotI, NheI digested plasmid. Human embryonic kidney (HEK) cells (ATCC CRL-1573, Manassas, Va., USA) were transfected with the pcDNA3.1 (+). hP2X7 plasmid using lipofectamine 2000 (Invitrogen AG, CH) according to the manufacturer's instructions. Following a 24 h exposure to DNA, cells were trypsinized and re-seeded at low density in the presence of 250 μg Geneticin. Geneticin resistant cells were then selected during two consecutive rounds of cloning by serial limiting dilution with visual inspection. […] Specific cell clones were chosen based on RNA and protein expression. […] Cells were grown to confluency in adherent culture at 37° C. in a humidified 5% CO2 incubator (split 1⁄5 every 3-4 days with DMEM, 10% FCS, 1% Penicillin/Streptomycin, 250 μg/ml Geneticin). […] Medium was removed from cells and 50 μl of assay buffer containing 0.5 μM YO-[…] was added into the wells. Solutions of antagonist compounds were prepared by serial dilutions of a 10 mM DMSO solution of the antagonist into PBS using a BioMek (Beckman Coulter). Each concentration was performed in duplicate. […] The cells were incubated with the antagonists of the present invention together with ATP at a final concentration of 250 μM for 90 minutes. During this time period, four time points were taken. Each time point comprised the average of several measurements made within a few seconds. Fluorescence was measured in the FLIPR tetra (Molecular Devices) using the filters appropriate for YO-[…] fluorescence (excitation 485/20, emission 530/25). The FLIPR tetra was equipped with Molecular Devices Screen Works system control software to define and run experimental protocols. […] For IC50 measurements the maximum intensity is plotted against the concentration of compound to determine IC50 values.

Chain of human recombinant P2X7 receptor (Q99572 whole entry): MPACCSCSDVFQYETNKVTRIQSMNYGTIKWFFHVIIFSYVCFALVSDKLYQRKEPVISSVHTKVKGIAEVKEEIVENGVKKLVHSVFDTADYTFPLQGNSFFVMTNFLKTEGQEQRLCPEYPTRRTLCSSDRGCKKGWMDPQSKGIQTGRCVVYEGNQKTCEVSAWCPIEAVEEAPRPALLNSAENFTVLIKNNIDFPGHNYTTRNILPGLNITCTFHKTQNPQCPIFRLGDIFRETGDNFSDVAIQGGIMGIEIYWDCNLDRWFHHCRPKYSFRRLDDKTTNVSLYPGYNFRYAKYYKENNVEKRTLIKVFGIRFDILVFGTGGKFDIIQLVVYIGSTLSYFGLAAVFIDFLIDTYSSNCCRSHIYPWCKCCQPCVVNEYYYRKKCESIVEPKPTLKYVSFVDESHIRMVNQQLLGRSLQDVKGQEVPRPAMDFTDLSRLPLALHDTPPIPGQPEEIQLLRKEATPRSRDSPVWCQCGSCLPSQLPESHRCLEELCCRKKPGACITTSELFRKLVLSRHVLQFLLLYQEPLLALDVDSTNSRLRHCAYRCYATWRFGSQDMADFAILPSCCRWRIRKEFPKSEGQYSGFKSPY

In the case of `Cc1ncc(C(CNC(=O)C2CCc3ncsc32)N2CCOCC2)cn1` (centres unmarked) [Example 6, N-(2-(2-methylpyrimidin-5-yl)-2-morpholinoethyl)-5,6-dihydro-4H-cyclopenta[d]thiazole-6-carboxamide], the IC50 turned out to be 1370 nM.

As for `O=C(N[C@H](CO)C1CCCCC1)C1CCCc2ncsc21` (stereo partly drawn) [Example 12, N-((S)-1-cyclohexyl-2-hydroxyethyl)-4,5,6,7-tetrahydrobenzo[d]thiazole-7-carboxamide], the half-maximal inhibitory concentration (IC50) was found to be 41 nM.

Consider `O=C(N[C@H](CO)C1CCCCC1)C1CCOc2ncsc21` (stereo partly drawn) [Example 8, N-((S)-1-cyclohexyl-2-hydroxyethyl)-6,7-dihydro-5H-pyrano[2,3-d]thiazole-7-carboxamide], for which the half-inhibitory concentration (IC50) was 340 nM.

As to `O=C(NC(CO)C1CCCCCC1)C1COc2ncsc21` (centres unmarked) [Example 1, N-(1-cycloheptyl-2-hydroxyethyl)-5,6-dihydrofuro[2,3-d]thiazole-6-carboxamide], the half-maximal inhibitory concentration (IC50) came out at 818 nM.

In the case of `O=C(NCC1(c2ccc(Cl)nc2)CCC(F)(F)CC1)C1CCCc2ncsc21` (centres unmarked) [Example 14, N-((1-(6-chloropyridin-3-yl)-4,4-difluorocyclohexyl)methyl)-4,5,6,7-tetrahydrobenzo[d]thiazole-7-carboxamide], the 50% inhibitory concentration (IC50) was 6.3 nM.

Take `O=C(NCC1(c2ccc(Cl)nc2)CCCCC1)C1CCCc2ncsc21` (centres unmarked) [Example 13, N-((1-(6-chloropyridin-3-yl)cyclohexyl)methyl)-4,5,6,7-tetrahydrobenzo[d]thiazole-7-carboxamide]: the IC50 stood at 3.4 nM.

In the case of `O=C(NCC1(c2ccc(Cl)nc2)CCCCC1)C1COc2ncsc21` (centres unmarked) [Example 2, N-((1-(6-chloropyridin-3-yl)cyclohexyl)methyl)-5,6-dihydrofuro[2,3-d]thiazole-6-carboxamide], the half-maximal inhibitory concentration (IC50) was determined as 28 nM.

Consider `O=C(N[C@H](CO)C1CCCCC1)C1CCCCc2ncsc21` (stereo partly drawn) [Example 16, N-((S)-1-cyclohexyl-2-hydroxyethyl)-5,6,7,8-tetrahydro-4H-cyclohepta[d]thiazole-8-carboxamide], for which the IC50 was found to be 348 nM.

As for `O=C(NCC(c1ccc(C(F)(F)F)nc1)N1CCOCC1)C1COc2ncsc21` (centres unmarked) [Example 4, N-(2-morpholino-2-(6-(trifluoromethyl)pyridin-3-yl)ethyl)-5,6-dihydrofuro[2,3-d]thiazole-6-carboxamide], the IC50 was 332 nM.

`Cc1ncc(C(CNC(=O)C2CCc3ncsc32)N2CCC(F)(F)CC2)cn1` (centres unmarked) [Example 7, N-(2-(4,4-difluoropiperidin-1-yl)-2-(2-methylpyrimidin-5-yl)ethyl)-5,6-dihydro-4H-cyclopenta[d]thiazole-6-carboxamide]: the half-inhibitory concentration (IC50) came out at 478 nM.

Turning to `O=C(N[C@H](CO)C1CCCCC1)C1CCCCc2ncsc21` (stereo partly drawn) [Example 17, N-((S)-1-cyclohexyl-2-hydroxyethyl)-5,6,7,8-tetrahydro-4H-cyclohepta[d]thiazole-8-carboxamide], the IC50 is 543 nM.

With `Cc1ncc(C(CNC(=O)C2COc3ncsc32)N2CCC(F)(F)CC2)cn1` (centres unmarked) [Example 3, N-(2-(4,4-difluoropiperidin-1-yl)-2-(2-methylpyrimidin-5-yl)ethyl)-5,6-dihydrofuro[2,3-d]thiazole-6-carboxamide], the half-maximal inhibitory concentration (IC50) was 2040 nM.

As to `C[C@@H](NC(=O)C1CCCc2ncsc21)C1CCCCC1` (stereo partly drawn) [Example 11, N-((R)-1-cyclohexylethyl)-4,5,6,7-tetrahydrobenzo[d]thiazole-7-carboxamide], the IC50 worked out at 60 nM.

On to `Cc1ncc(C(CNC(=O)C2CCOc3ncsc32)N2CCOCC2)cn1` (centres unmarked) [Example 9, N-(2-(2-methylpyrimidin-5-yl)-2-morpholinoethyl)-6,7-dihydro-5H-pyrano[2,3-d]thiazole-7-carboxamide], for which the IC50 amounted to 1430 nM.

On to `O=C(N[C@H](CO)C1CCCCC1)C1CCc2ncsc21` (stereo partly drawn) [Example 5, N-((S)-1-cyclohexyl-2-hydroxyethyl)-5,6-dihydro-4H-cyclopenta[d]thiazole-6-carboxamide], for which the IC50 was 272 nM.

With `O=C(NCC(c1cnc(C(F)(F)F)nc1)N1CCOCC1)C1CCCc2ncsc21` (centres unmarked) [Example 15, N-(2-morpholino-2-(2-(trifluoromethyl)pyrimidin-5-yl)ethyl)-4,5,6,7-tetrahydrobenzo[d]thiazole-7-carboxamide], the IC50 came out at 33 nM.

For `O=C(NCC(c1ccc(Cl)nc1)N1CCC(F)(F)CC1)C1CCOc2ncsc21` (centres unmarked) [Example 10, N-(2-(6-chloropyridin-3-yl)-2-(4,4-difluoropiperidin-1-yl)ethyl)-6,7-dihydro-5H-pyrano[2,3-d]thiazole-7-carboxamide], the IC50 came out at 74 nM.

The values above are taken from patent US9388198B2, “Heterocyclic amide derivatives as P2X7 receptor antagonists” (ACTELION PHARMACEUTICALS LTD, priority 2014, dated 2016).
